Data reported in ChEMBL document CHEMBL1817544, “Carbonic anhydrase inhibitors. Synthesis, molecular structures, and inhibition of the human cytosolic isozymes I and II and transmembrane isozymes IX, XII (cancer-associated) and XIV with novel 3-pyridinesulfonamide derivatives” (Eur J Med Chem, 2011).

Each compound was assayed against Carbonic anhydrase 9 (Homo sapiens, UniProt Q16790).

Row | Structure (SMILES) | Ki [nM]
1 | COC1=CC=CC2N1c1ccncc1S(=O)(=O)N2c1ccncc1S(N)(=O)=O (centres undefined) | 8.7
2 | CN(C)c1cc[n+](-c2ccncc2S(N)(=O)=O)cc1 | 9
3 | NS(=O)(=O)c1cnccc1-n1ccccc1=O | 10.2
4 | NS(=O)(=O)c1cnccc1-[n+]1ccccc1 | 7.6
5 | Cc1cccc[n+]1-c1ccncc1S(N)(=O)=O | 7.4
6 | NS(=O)(=O)c1cnccc1Oc1ccncc1S(N)(=O)=O | 9
7 | Cc1cc[n+](-c2ccncc2S(N)(=O)=O)cc1 | 10.1
8 | COC1=C(S(N)(=O)=O)C2NS(=O)(=O)c3cnccc3N2C=C1 (centres undefined) | 13.5

These compounds were tested against Carbonic anhydrase 1 (Homo sapiens, UniProt P00915).
Chain of Carbonic anhydrase 1 (P00915 whole entry): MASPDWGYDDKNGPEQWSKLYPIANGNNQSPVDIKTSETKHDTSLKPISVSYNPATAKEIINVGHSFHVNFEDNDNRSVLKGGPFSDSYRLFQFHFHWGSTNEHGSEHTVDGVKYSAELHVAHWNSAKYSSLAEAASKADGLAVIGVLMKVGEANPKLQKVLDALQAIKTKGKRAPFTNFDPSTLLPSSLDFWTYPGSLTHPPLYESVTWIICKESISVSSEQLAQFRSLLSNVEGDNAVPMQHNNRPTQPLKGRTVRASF

Row | Structure (SMILES) | Ki [nM]
9 | NS(=O)(=O)c1cnccc1Oc1ccncc1S(N)(=O)=O | 251000
